# Measurements reported in patent US20050031651A1, “Therapeutic formulations for the treatment of beta-amyloid related diseases” (priority 2002, published 2005).
# Like-named read-outs stand apart in the source and are kept apart here.
# Experiments:
# SM-4 cells = details: cited from earlier work
# amyloid deposits = details: mice genetically prone to overproduce amyloid-β; nine week period; cited from earlier work
# [1] = test system: mild and moderate Alzheimer's disease patients; details: reference value, cited from earlier work
# [2] = Presence of the alkanesulfonic acid in CSF of patients (LC-MS/MS); type: in vivo, human; details: patients treated three months, CSF collected five hours following dosing, 100, 200 or 300 mg daily
# Description: (§1) Methodology. CSF was obtained from patients before and after treatment with the test compound at daily doses of 100 mg, 200 mg, or 300 mg. CSF was fractionated by FPLC following treatment with formic acid, and then the Aβ containing fraction was lyophilised. The amount of Aβ peptide was measured using an ELISA assay (Biosource). […] The presence of the alkanesulfonic acid in the CSF was determined in patients who had received treatment for three months. In these patients, CSF was collected five hours following dosing, and levels of alkanesulfonic acid were determined by LC-MS/MS.
# [3] = test system: mild and moderate Alzheimer's disease patients; experiment: Change in ADAS-Cog score of Alzheimer's patients over nine months of treatment; type: in vivo, human; details: Mild + Moderate AD patients combined, observed, negative change = improvement
# Text: In this example, mild and moderate patients have been treated with an alkanesulfonic acid, namely 3-amino-1-propanesulfonic acid, in combination with other therapeutic compounds used to diminish symptoms characteristic of Alzheimer's disease (e.g., loss of cognitive functions). The examples comprise the use of an alkanesulfonic acid in combination with cognitive enhancers such as acetylcholine esterase inhibitors (“AChEi”). The effect of these combination therapies on the change in ADAS-cog score in the patients was determined.
# Patients were treated with the test alkanesulfonic acid for a period of 9 months. A group of patients received the test compound alone while another group were treated with the test compound in combination with an AChEi, namely donepezil.
# Effect on ADAS-Cog. Upon entering the study, Alzheimer's patients were categorized as being “mild” or “moderate” according to their MMSE (“Mini Mental State Examination”) score. B.W.Rover, et al., “Mini-mental state exam in clinical practice.” Hospital Practice 22(1 A), 99 et seq. (1987). (According to this examination a MMSE score in the range of 19 to 26 was considered “mild,” and a score in the range 13 to 18 was considered “moderate”). Then, the change in mental function of these patients was analyzed by using their ADAS-Cog scores, which were recorded periodically over a nine month period. […]
# Aβ CSF concentration = Aβ CSF concentration of patients at time 0 and 3 months (FPLC, ELISA); type: in vivo, human; details: for effect on CSF level of Aβ: 3-month period
# Description: The alkanesulfonic acid used in the study is known to have an effect on the concentration of Aβ in the brain. We also determined the effect of test compound on the change in Aβ CSF levels of patients with mild to moderate Alzheimer's disease compared to that seen in patients treated with a triple combination of test compound with AChEi and statin.
# Patients treated with alkanesulfonic acid test compound in the presence or absence of AChEi and statin were evaluated for their Aβ CSF concentration at time 0 and 3 months following the initiation of treatment with the alkanesulfonic acid. The change in AP42 CSF concentration was compared to the respective placebo group.
# as §1
# AP42 in the brain = details: transgenic mice; previously shown; cited from earlier work
smiles,measurement,setting,value
Cc1cccc(Nc2cc(Cl)nc(SCC(=O)O)n2)c1C [pirinixic acid],Aβ42 production or release from SM-4 cells,SM-4 cells; concentration-dependent manner,decrease in Aβ42 production or release
"Oc1c(I)cc(Cl)c2cccnc12 [Clioquinol, 5-chloro-7-iodo-8-hydroxyquinoline]",adverse effects,amyloid deposits,no adverse effects
same,amyloid deposits,amyloid deposits,cut amyloid deposits in half
"COc1cc2c(cc1OC)C(=O)C(CC1CCN(Cc3ccccc3)CC1)C2 (centres unmarked) [AchEi, donepezil]",Change in ADAS-Cog over 9 months,[1]; Mild AD patient group,+5.0 reference
same,Change in ADAS-Cog over 9 months,[1]; Moderate AD patient group,+2.5 reference
"CCOC(=O)C(C)(C)Oc1ccc(Cl)cc1 [clofibrate, ethyl 2-(p-chlorophenoxy)-2-methylpropionate]",Aβ42 extracellular levels,"SM-4 cells; SM-4 cells, concentration range of 50-500 μM",increase Aβ42 extracellular levels
"NCCCS(=O)(=O)O [Test compound, 3-amino-1-propanesulfonic acid]",presence of the alkanesulfonic acid in CSF,[2],present in CSF of patients in a dose-dependent manner
same,Change in ADAS-Cog over 9 months,[3],−0.5 observed
same,Change in ADAS-Cog over 9 months,[3]; listed as test compound,−0.5
same,effect on CSF level of Aβ,"Aβ CSF concentration; 100 mg daily doses, majority of patients",stable Aβ CSF levels
same,effect on CSF level of Aβ,Aβ CSF concentration; 200 or 300 mg daily doses,reduce the CSF level of Aβ
same,decrease in Aβ CSF concentration,"Aβ CSF concentration; mild to moderate AD patients, time 0 vs 3 months after start of treatment",34%
same,difference in change of Aβ CSF concentration compared to the respective control group,"Aβ CSF concentration; vs placebo (test compound) or vs AChEi and statin (triple therapy), 3 months",49%
same,levels of soluble and insoluble AP42 in the brain,AP42 in the brain,decrease the levels of both soluble and insoluble AP42
